{"source": "patent US12496287B2", "about": "“Compositions and methods for treating macrophage activation syndrome” (THE CHILDREN'S HOSPITAL OF PHILADELPHIA, priority 2019, dated 2025)", "key": {"[1]": {"conditions": "low dose CO (100-125 ppm); patients with idiopathic pulmonary fibrosis or COPD; cited from earlier work"}, "[2]": {"biological_target": "T1, HO-1 (Mus musculus, UniProt P14901)", "T1 construct": "endogenous in cells; host or cells: mouse bone marrow derived macrophages (BMDM)", "T1 sequence (P14901 1-289)": "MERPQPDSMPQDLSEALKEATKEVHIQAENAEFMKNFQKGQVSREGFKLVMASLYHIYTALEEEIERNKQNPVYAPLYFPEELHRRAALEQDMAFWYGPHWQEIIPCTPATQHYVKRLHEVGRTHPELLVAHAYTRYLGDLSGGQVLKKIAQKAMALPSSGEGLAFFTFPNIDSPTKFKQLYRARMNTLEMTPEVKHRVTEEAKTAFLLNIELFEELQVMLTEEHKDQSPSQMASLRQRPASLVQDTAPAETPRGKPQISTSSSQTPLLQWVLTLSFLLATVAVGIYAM", "test": "Cytokines in supernatants of CpG-stimulated BMDMs treated with ZnPP and/or CORM2 (ELISA)", "assay_type": "cell-based", "method": "Bone marrow (BM) was extracted from the hind limbs of mice and filtered over a 70-μm strainer to obtain a single cell suspension, followed by RBC lysis. Bone marrow derived macrophages (BMDM) were derived by culture in M-CSF-enriched media of L929 cells. RAW264.7 cells were obtained from ATCC (Manassas, VA). Class B CpG1826 oligonucleotide was synthesized by Integrated DNA Technologies (Coralville, IA). Macrophages were treated with CpG (1 μg/ml) for 18 to 20 hours for cytokine analysis in cell supernatant, and for 0 to 2 hours for analysis of protein expression level by Western blot treated as indicated.\n(§1) TLR9 activation induced cytokines from cells supernatants and serum were measured by using the ELISA kits from BD OptEIA™ (Cat nos. IL-12: 555256, IL-10: 555252, TNFα: 555268 and IL-6: 555240; Franklin Lakes, NJ)."}, "[3]": {"system": "TLR9-MAS murine model", "test": "TLR9-MAS murine model (repeated CpG), MMF treatment, C57BL/6 mice", "assay_type": "in vivo, mouse", "method": "(§2) MAS was induced by repeated activation of TLR9 as described (Behrens, et al. (2011) J. Clin. Invest., 121(6):2264-77; Weaver, et al. (2016) Proc. Natl. Acad. Sci., 113(39):10944-9). Briefly, 8-week old mice were injected with five doses of PBS or 50 μg of CpG1826 intraperitoneally every other day for 9 days, while MMF (cat no: 4511, TOCRIS (Bristol, UK)) in DMSO was injected at 45 mg/Kg body weight based on standard dosing used in other murine studies (Cho, et al. (2015) J. Neuroinflammation 12:239; Yao, et al. (2016) Transl. Stroke Res., 7(6):535-47), every day once in the morning and once in the evening. The control group received DMSO instead of MMF. On day-10 mice were euthanized 24 hours after the last MMF injection, bled terminally to collect blood for complete blood count (CBC) and differential count, and serum for cytokine analysis by ELISA. Spleens and livers were harvested and were formalin fixed followed by paraffin embedment for tissue sectioning and slide preparation for histology and immunohistochemistry (IHC). To obtain single suspension of spleen leukocytes, spleens at 37° C. were disrupted and incubated in the presence of DNAase and collagenase, followed by filtering over 70-μm strainers and RBC lysis. The cells were counted and then adhered for 2 hours on petri dishes to obtain plastic adherent macrophages. TLR9 activation induced cytokines from cells supernatants and serum were measured by using the ELISA kits from BD OptEIA™ (Cat nos. IL-12: 555256, IL-10: 555252, TNFα: 555268 and IL-6: 555240; Franklin Lakes, NJ)."}, "[4]": {"system": "Nrf2/HO-1", "test": "MMF induction of Nrf2 and HO-1 in macrophages of injected mice (Western blot)", "assay_type": "in vivo, mouse", "method": "as §2, with “On day-10 mice were euthanized 24 hours after the last MMF injection, bled terminally to collect blood for complete blood count (CBC) and differential count, and serum for cytokine analysis by ELISA.” left out, “macrophages.” for “macrophages. TLR9 activation induced cytokines from cells supernatants and serum were measured by using the ELISA kits from BD OptEIA™ (Cat nos. IL-12: 555256, IL-10: 555252, TNFα: 555268 and IL-6: 555240; Franklin Lakes, NJ).”\nProtein samples (10-12 μg) were resolved by SDS-PAGE on 4-12% Bis-Tris gels (Invitrogen), electrotransferred to nitrocellulose membranes (Cat no. 10484060, Bio-Rad (Hercules, CA)), and assessed for the immunosignal of proteins using the antibodies against HO-1 (cat no. ADI-SPA-896, Enzo (Farmingdale, NY)), Nrf2 (Cat no. 12721, Cell Signaling (Danvers, MA)), Erk (Cat no. 4695, Cell signaling), pErk (Cat no. 4379, Cell Signaling), Cyclophilin B (CyPB, Cat no. PA1-027A, ThermoFisher Scientific), β tubulin (Cat no. 2146, Cell Signaling), β actin (Cat No. 66009-1-Ig, Proteintech (Rosemont, IL)), Calnexin (Cat no. ab22595, abcam (Cambridge, UK) and Histone 3 (Cat no. 4499, Cell Signaling). Fluorescence tagged respective secondary antibodies obtained from Li-COR (Lincoln, Neb.)—Goat-anti-Rabbit-antibody (IRDye® 800CW), or Donkey-anti-mouse-antibody (IRDye® 800CW) or Donkey anti-Mouse IgG (IRDye® 680RD) were then used. […]"}, "[5]": {"system": "TLR9-MAS", "test": "TLR9-MAS in HMOX1^WT and HMOX1^fl/fl mice, MMF treatment", "assay_type": "in vivo, mouse", "from_the_text": "C57BL/6 (WT) and LysM-Cre mice were purchased from The Jackson Laboratory (Bar Harbor, ME). HMOX1^fl/fl mice were crossbred with LysM-Cre mice and genotyped regularly to obtain mice with deletion of the HO-1 gene in myeloid lineage and are designated as: HMOX1^WT (intact HO-1), HMOX1^WT/fl (x LysM-cre, HO-1-haplodeficient,), and HMOX1^fl/fl (x LysM-Cre, complete HO-1-deficiency).\nas §2, with “macrophages.” for “macrophages. TLR9 activation induced cytokines from cells supernatants and serum were measured by using the ELISA kits from BD OptEIA™ (Cat nos. IL-12: 555256, IL-10: 555252, TNFα: 555268 and IL-6: 555240; Franklin Lakes, NJ).”\nSlides from paraffin-embedded tissue sections were stained with hematoxylin and eosin or were immune-stained for HO-1 (cat no. ADI-SPA-896, Enzo), followed by nuclear stain using prolong gold antifade reagent with Dapi (P36931, Invitrogen (Carlsbad, CA)). Images were acquired on an Eclipse 90i microscope (Nikon (Melville, NY)) using NIS-ELEMENTS software.\nas §1"}, "[6]": {"system": "HO-1", "test": "Splenic HO-1 expression in vivo after repeated CpG treatment (IHC, Western blot)", "parameters": "species or system mouse", "conditions": "IFNγ alone, intraperitoneally, IFNγ-/- mice", "method": "as §2, with “TLR9 activation induced cytokines from cells supernatants and serum were measured by using the ELISA kits from BD OptEIA™ (Cat nos. IL-12: 555256, IL-10: 555252, TNFα: 555268 and IL-6: 555240; Franklin Lakes, NJ).” left out"}, "[7]": {"conditions": "day 10, MMF twice a day, CpG every other day"}, "[8]": {"conditions": "spleen plastic adherent macrophages, MMF i.p. every 12 hours, 3 doses, 4 hours after last dose"}}, "note": "Counter-ions that a name gives are not always drawn.", "data": [{"molecule": "[C-]#[O+]", "note": "[CO, carbon monoxide]", "values": [{"measurement": "tolerability", "setting": "[1]", "result": "tolerated"}]}, {"molecule": "C=CC1=C(C)c2cc3[n-]c(cc4nc(cc5[n-]c(cc1n2)c(C)c5C=C)C(C)=C4CCC(=O)O)c(CCC(=O)O)c3C.[Zn+2]", "note": "[ZnPP, zinc protoporphyrin]", "values": [{"measurement": "IL-6 in response to CpG", "setting": "[2]; ZnPP 3 μM, BMDMs", "result": "increased levels"}, {"measurement": "TNFα in response to CpG", "setting": "[2]; ZnPP 3 μM, BMDMs", "result": "increased levels"}, {"measurement": "production of IL-10", "setting": "[2]; ZnPP 3 μM, BMDMs stimulated with CpG", "result": "substantially reduced"}, {"measurement": "IL-10", "setting": "[2]; ZnPP, CpG-treated HMOX1^WT BMDM", "result": "blocked"}, {"measurement": "residual IL-10", "setting": "[2]; ZnPP, CpG-treated HMOX1^fl/fl BMDM", "result": "without showing any effect"}]}, {"molecule": "COC(=O)/C=C/C(=O)O", "note": "[MMF, monomethyl fumarate]", "values": [{"measurement": "cellularity in spleen", "setting": "[3]; MMF + CpG", "result": "reduced cellularity"}, {"measurement": "organomegaly of liver", "setting": "[3]; MMF + CpG", "result": "reduced"}, {"measurement": "organomegaly of spleen", "setting": "[3]; MMF + CpG", "result": "reduced"}, {"measurement": "serum IL-10", "setting": "[3]; day 10, MMF 45 mg/Kg twice a day, CpG every other day", "result": "significantly higher"}, {"measurement": "erythrocyte count in blood", "setting": "[3]; day 10, MMF + CpG", "result": "corrected"}, {"measurement": "platelet count in blood", "setting": "[3]; day 10, MMF + CpG", "result": "corrected"}, {"measurement": "serum IFNγ", "setting": "[3]; [7]", "result": "drop"}, {"measurement": "serum IL-12", "setting": "[3]; [7]", "result": "drop"}, {"measurement": "HO-1 expression in splenic and peritoneal macrophages", "setting": "[4]; MMF treatment", "result": "increased"}, {"measurement": "HO-1 immunosignal relative to DMSO control", "setting": "[4]; [8]", "result": "significantly increased"}, {"measurement": "Nrf2 immunosignal relative to DMSO control", "setting": "[4]; [8]", "result": "significantly increased"}, {"measurement": "serum IL-10 elevation", "setting": "[5]; CpG treated HMOX1^WT mice", "result": 3, "unit": "fold"}, {"measurement": "serum IL-10 elevation effect", "setting": "[5]; CpG treated HMOX1^fl/fl mice", "result": "completely lost"}, {"measurement": "serum IFNγ", "setting": "[5]; CpG treated HMOX1 mice", "result": "unaffected"}, {"measurement": "serum IL-12", "setting": "[5]; CpG treated HMOX1 mice, HO-1 independent", "result": "slightly reduced"}, {"measurement": "recovery from anemia (RBC)", "setting": "[5]; HMOX1^WT mice", "result": "almost complete recovery"}, {"measurement": "recovery from thrombocytopenia (platelets)", "setting": "[5]; HMOX1^WT mice", "result": "almost complete recovery"}, {"measurement": "hepatosplenomegaly", "setting": "[5]; HMOX1^fl/fl mice", "result": "partially protected"}, {"measurement": "recovery from anemia (RBC)", "setting": "[5]; HMOX1^fl/fl mice", "result": "partial recovery"}, {"measurement": "recovery from thrombocytopenia (platelets)", "setting": "[5]; HMOX1^fl/fl mice", "result": "partial recovery"}, {"measurement": "lobular inflammatory score (liver)", "setting": "[5]; both WT and HMOX1^fl/fl mice", "result": "reduce"}, {"measurement": "portal inflammatory score (liver)", "setting": "[5]; both WT and HMOX1^fl/fl mice", "result": "reduce"}, {"measurement": "histologic evidence of endothelial activation", "setting": "[5]; independent of mouse genotype", "result": "reduce"}]}, {"molecule": "[C-]#[O+].[C-]#[O+].[C-]#[O+].[C-]#[O+].[C-]#[O+].[C-]#[O+].[Cl][Ru][Cl].[Cl][Ru][Cl]", "note": "[CORM2, carbon monoxide-releasing molecule [CORM] 2]", "values": [{"measurement": "IL-10", "setting": "[2]; CORM2 in BMDM not inhibited by ZnPP or genetically sufficient for HO-1", "result": "no additional effect"}, {"measurement": "IL-10", "setting": "[2]; CORM2 in HMOX1^fl/fl BMDMs", "result": "rescue"}, {"measurement": "IL-10 levels", "setting": "[2]; CORM2 in ZnPP treated BMDMs, CpG 1 μg/ml", "result": "restored IL-10 levels to normal"}]}, {"molecule": "IFNγ: interferon gamma added back intraperitoneally to IFNγ-/- mice (protein, UniProt P01580 23-155, looked up) Interferon gamma: HGTVIESLESLNNYFNSSGIDVEEKSLFLDIWRNWQKDGDMKILQSQIISFYLRLFEVLKDNQAISNNISVIESHLITTFFSNSKAKKDAFMSIAKFEVNNPQVQRQAFNELIRVVHQLLPESSLRKRKRSRC", "values": [{"measurement": "HO-1 induction in spleen", "setting": "[6]", "result": "did not induce HO-1"}]}]}
